# Experimental data reported in patent US8809361B2, “2,3-dihydrofuro[2,3-c]pyridines, their use as modulators of the G-protein-coupled receptor GPR119 and pharmaceutical compositions thereof” (Boehringer Ingelheim International GmbH, priority 2012, dated 2014).
# Target: T1, human GPR119 (Homo sapiens, UniProt Q8TDV5)
# T1 construct: expression vector for human GPR119 cDNA (Acc. No. NP_848566); expressed in transfected cells
# T1 sequence (Q8TDV5 1-335): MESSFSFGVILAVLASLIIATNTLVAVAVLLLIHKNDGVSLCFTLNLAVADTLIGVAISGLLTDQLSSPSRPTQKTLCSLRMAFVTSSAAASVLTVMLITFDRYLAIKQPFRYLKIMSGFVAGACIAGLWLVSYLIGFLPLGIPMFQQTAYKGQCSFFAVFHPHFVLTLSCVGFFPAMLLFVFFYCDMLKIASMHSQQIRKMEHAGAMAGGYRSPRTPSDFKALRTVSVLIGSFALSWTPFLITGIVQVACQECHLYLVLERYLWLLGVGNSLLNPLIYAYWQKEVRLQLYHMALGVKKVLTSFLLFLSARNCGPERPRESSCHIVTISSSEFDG
# Experiment: GPR119 activation / intracellular cAMP stimulation, AlphaScreen cAMP Assay in Min-6/hGPR119 cells
# Type: cell-based
# Conditions: MIN6 cells stably transfected with human GPR119, 45 minutes incubation at room temperature
# Protocol: The compounds of formula I according to the invention modulate the activity of the G-protein-coupled receptor GPR119. The effect of the compounds on the activation of GPR119 and on the stimulation of intracellular cAMP concentration is determined using the AlphaScreen cAMP Assay Kit (Cat. No. #6760625R) made by PerkinElmer.
# MIN6 cells [Miyazaki J et al., Endocrinology. 1990 July; 127(1):126-32] are stably transfected with an expression vector for human GPR119 cDNA (Acc. No. NP_848566). Min-6/hGPR119 cells are cultured in DMEM, 10% FBS, 50 μM β-mercaptoethanol, 0.3 mg/mL Geniticin, 2 mM GlutaMAX at 37° C., 5% CO2. For the assay, the cells are seeded in Optiplates (white, 384-well, 160W-barcoded, TC, sterile with lid, Cat. No. #6007688 (Perkin Elmer); 10000 cells/well; 50 μL). The plates covered with lids are then incubated for 24 hours at 37° C., 5% CO2. After the medium is aspirated from the wells completely, 10 ill of the test compound are added, the compounds are diluted using stimulating buffer (140 mM NaCl, 3.6 mM KCl, 0.5 mM NaH2PO4, 0.5 mM MgSO4, 1.5 mM CaCl2, 10 mM Hepes, 5 mM NaHCO3; pH 7.4. 0.5 mM IBMX and 0.1% BSA, the final DMSO concentration is 1%). After 45 minutes incubation at room temperature (approx. 20° C.), the cAMP concentrations are determined using the AlphaScreen cAMP Assay Kit (Cat. No. #6760625R from PerkinElmer).
row,EC50,SMILES
1,13 nM,"CS(=O)(=O)N1CC=C(c2cc3c(cn2)OC2(C3)CC3(CCN(c4ccc(C(F)(F)F)cn4)CC3)C2)CC1 [Example 11, 5-(1-Methanesulfonyl-1,2,3,6-tetrahydro-pyridin-4-yl)-1″-(5-trifluoromethyl-pyridin-2-yl)-dispiro[2,3-dihydrofuro[2,3-c]pyridine-2,1′-cyclobutane-3′,4″-piperidine]]"
2,10 nM,"CCCc1noc(N2CCC3(CC2)CC2(Cc4cc(C5=CCN(S(C)(=O)=O)CC5)ncc4O2)C3)n1 [Example 24, 5-(1-Methanesulfonyl-1,2,3,6-tetrahydro-pyridin-4-yl)-1″-(3-n-propyl-[1,2,4]oxadiazol-5-yl)-dispiro[2,3-dihydrofuro[2,3-c]pyridine-2,1′-cyclobutane-3′,4″-piperidine]]"
3,6 nM,"CS(=O)(=O)N1CC=C(c2cc3c(cn2)OC2(C3)CC3(CCN(c4ncc(Cl)cn4)CC3)C2)CC1 [Example 9, 1″-(5-Chloro-pyrimidin-2-yl)-5-(1-methanesulfonyl-1,2,3,6-tetrahydro-pyridin-4-yl)-dispiro[2,3-dihydrofuro[2,3-c]pyridine-2,1′-cyclobutane-3′,4″-piperidine]]"
4,11 nM,"CC1(OC(=O)N2CCC3(CC2)CC2(Cc4cc(C5=CCN(S(C)(=O)=O)CC5)ncc4O2)C3)CC1 [Example 12, 5-(1-Methanesulfonyl-1,2,3,6-tetrahydro-pyridin-4-yl)-1″-(1-methyl-cyclopropyloxycarbonyl)-dispiro[2,3-dihydrofuro[2,3-c]pyridine-2,1′-cyclobutane-3′,4″-piperidine]]"
5,6 nM,"CS(=O)(=O)N1CC=C(c2cc3c(cn2)OC2(C3)CC3(CCN(c4ncc(C(F)(F)F)cn4)CC3)C2)CC1 [Example 32, 5-(1-Methanesulfonyl-1,2,3,6-tetrahydro-pyridin-4-yl)-1″-(5-trifluoromethyl-pyrimidin-2-yl)-dispiro[2,3-dihydrofuro[2,3-c]pyridine-2,1′-cyclobutane-3′,4″-piperidine]]"
6,10 nM,"CC(C)Oc1cnc(N2CCC3(CC2)CC2(Cc4cc(C5=CCN(S(C)(=O)=O)CC5)ncc4O2)C3)nc1 [Example 15, 1″-(5-Isopropoxy-pyrimidin-2-yl)-5-(1-methanesulfonyl-1,2,3,6-tetrahydro-pyridin-4-yl)-dispiro[2,3-dihydrofuro[2,3-c]pyridine-2,1′-cyclobutane-3′,4″-piperidine]]"
7,8 nM,"C[C@@H](OC(=O)N1CCC2(CC1)CC1(Cc3cc(C4=CCN(S(C)(=O)=O)CC4)ncc3O1)C2)C(F)(F)F [Example 33, 5-(1-Methanesulfonyl-1,2,3,6-tetrahydro-pyridin-4-yl)-1″-[(R)-2,2,2-trifluoro-1-methyl-ethyloxycarbonyl]-dispiro[2,3-dihydrofuro[2,3-c]pyridine-2,1′-cyclobutane-3′,4″-piperidine]]"
8,5 nM,"CC(C)c1nc(N2CCC3(CC2)CC2(Cc4cc(C5=CCN(S(C)(=O)=O)CC5)ncc4O2)C3)no1 [Example 25, 1″-(5-Isopropyl-[1,2,4]oxadiazol-3-yl)-5-(1-methanesulfonyl-1,2,3,6-tetrahydro-pyridin-4-yl)-dispiro[2,3-dihydrofuro[2,3-c]pyridine-2,1′-cyclobutane-3′,4″-piperidine]]"
9,42 nM,"Cc1cnc(N2CCC3(CC2)CC2(Cc4cc(-c5ccc(S(C)(=O)=O)cc5)ncc4O2)C3)nc1 [Example 7, 1″-(5-Methyl-pyrimidin-2-yl)-5-(4-methylsulfonyl-phenyl)-dispiro[2,3-dihydrofuro[2,3-c]pyridine-2,1′-cyclobutane-3′,4″-piperidine]]"
10,8 nM,"CCCc1nc(N2CCC3(CC2)CC2(Cc4cc(C5=CCN(S(C)(=O)=O)CC5)ncc4O2)C3)no1 [Example 26, 5-(1-Methanesulfonyl-1,2,3,6-tetrahydro-pyridin-4-yl)-1″-(3-n-propyl-[1,2,4]oxadiazol-3-yl)-dispiro[2,3-dihydrofuro[2,3-c]pyridine-2,1′-cyclobutane-3′,4″-piperidine]]"
11,4 nM,"CCCc1cnc(N2CCC3(CC2)CC2(Cc4cc(C5=CCN(S(C)(=O)=O)CC5)ncc4O2)C3)nc1 [Example 16, 5-(1-Methanesulfonyl-1,2,3,6-tetrahydro-pyridin-4-yl)-1″-(5-n-propyl-pyrimidin-2-yl)-dispiro[2,3-dihydrofuro[2,3-c]pyridine-2,1′-cyclobutane-3′,4″-piperidine]]"
12,18 nM,"CCc1cnc(N2CCC3(CC2)CC2(Cc4cc(-c5ccc(S(C)(=O)=O)cc5)ncc4O2)C3)nc1 [Example 4, 1″-(5-Ethyl-pyrimidin-2-yl)-5-(4-methylsulfonyl-phenyl)-dispiro[2,3-dihydrofuro[2,3-c]pyridine-2,1′-cyclobutane-3′,4″-piperidine]]"
13,4 nM,"C[C@H](OC(=O)N1CCC2(CC1)CC1(Cc3cc(C4=CCN(S(C)(=O)=O)CC4)ncc3O1)C2)C(F)(F)F [Example 27, 1″-[(S)-2,2,2-Trifluoro-1-methyl-ethyloxycarbonyl]-5-(1-methanesulfonyl-1,2,3,6-tetrahydro-pyridin-4-yl)-dispiro[2,3-dihydrofuro[2,3-c]pyridine-2,1′-cyclobutane-3′,4″-piperidine]]"
14,135 nM,"CC(C)(F)CN1CCC2(CC1)CC1(Cc3cc(-c4ccc(S(C)(=O)=O)cc4)ncc3O1)C2 [Example 6, 1″-(2-Fluoro-2-methyl-propyl)-5-(4-methylsulfonyl-phenyl)-dispiro[2,3-dihydrofuro[2,3-c]pyridine-2,1′-cyclobutane-3′,4″-piperidine]]"

row,SMILES,EC50
1,"CC(C)(C)OC(=O)N1CCC2(CC1)CC1(Cc3cc(N4CCN(S(C)(=O)=O)CC4)ncc3O1)C2 [Example 21, 5-(4-Methanesulfonyl-piperazin-1-yl)-1″-tert-butoxycarbonyl-dispiro[2,3-dihydrofuro[2,3-c]pyridine-2,1′-cyclobutane-3′,4″-piperidine]]",77 nM
2,"CC(C)(C)OC(=O)N1CCC2(CC1)CC1(Cc3cc(-c4ccc(S(C)(=O)=O)cc4)ncc3O1)C2 [Example 1, 5-(4-Methylsulfonyl-phenyl)-1″-tert-butoxycarbonyl-dispiro[2,3-dihydrofuro[2,3-c]pyridine-2,1′-cyclobutane-3′,4″-piperidine]]",21 nM
3,"CC(C)(C)OC(=O)N1CCC2(CC1)CC1(Cc3cc(-c4ccc(CS(C)(=O)=O)cc4)ncc3O1)C2 [Example 18, 5-(4-Methylsulfonylmethyl-phenyl)-1″-tert-butoxycarbonyl-dispiro[2,3-dihydrofuro[2,3-c]pyridine-2,1′-cyclobutane-3′,4″-piperidine]]",24 nM
4,"CCNC(=O)c1ccc(-c2cc3c(cn2)OC2(C3)CC3(CCN(C(=O)OC(C)(C)C)CC3)C2)cc1 [Example 22, 5-(4-Ethylaminocarbonyl-phenyl)-1″-tert-butoxycarbonyl-dispiro[2,3-dihydrofuro[2,3-c]pyridine-2,1′-cyclobutane-3′,4″-piperidine]]",28 nM
5,"CC(C)(C)OC(=O)N1CCC2(CC1)CC1(Cc3cc(-c4ccc(C#N)cc4F)ncc3O1)C2 [Example 14, 5-(4-Cyano-2-fluoro-phenyl)-1″-tert-butoxycarbonyl-dispiro[2,3-dihydrofuro[2,3-c]pyridine-2,1′-cyclobutane-3′,4″-piperidine]]",60 nM
6,"CC(C)(C)OC(=O)N1CCC2(CC1)CC1(Cc3cc(-c4ccc(S(C)(=O)=O)cc4C#N)ncc3O1)C2 [Example 31, 5-(2-Cyano-4-methylsulfonyl-phenyl)-1″-tert-butoxycarbonyl-dispiro[2,3-dihydrofuro[2,3-c]pyridine-2,1′-cyclobutane-3′,4″-piperidine]]",5 nM
7,"CC(C)(C)OC(=O)N1CCC2(CC1)CC1(Cc3cc(C4CCN(S(C)(=O)=O)CC4)ncc3O1)C2 [Example 19, 5-(1-Methanesulfonyl-piperidin-4-yl)-1″-tert-butoxycarbonyl-dispiro[2,3-dihydrofuro[2,3-c]pyridine-2,1′-cyclobutane-3′,4″-piperidine]]",106 nM
8,"CC(C)(C)OC(=O)N1CCC2(CC1)CC1(Cc3cc(-c4ccc(S(C)(=O)=O)cc4F)ncc3O1)C2 [Example 3, 5-(2-Fluoro-4-methylsulfonyl-phenyl)-1″-tert-butoxycarbonyl-dispiro[2,3-dihydrofuro[2,3-c]pyridine-2,1′-cyclobutane-3′,4″-piperidine]]",15 nM
9,"CC(C)(C)OC(=O)N1CCC2(CC1)CC1(Cc3cc(C4=CCN(S(C)(=O)=O)CC4)ncc3O1)C2 [Example 2, 5-(1-Methanesulfonyl-1,2,3,6-tetrahydro-pyridin-4-yl)-1″-tert-butoxycarbonyl-dispiro[2,3-dihydrofuro[2,3-c]pyridine-2,1′-cyclobutane-3′,4″-piperidine]]",50 nM
